Source: patent US20240417738A1, “IMMUNOTHERAPIES FOR THE TREATMENT OF CANCER” (Ohio State Innovation Foundation, priority 2021, published 2024)

Experiments:
[1] = Saturated solubility study in squalene NE and PBS; assay type: physicochemical; details: 2 mg/ml, room temperature, 24 hours
Description: In the saturated solubility study, R848 or IVM were dissolved in PBS or formulated in NE at 2 mg/ml and incubated at room temperature for 24 hours. Insoluble solid drugs were pelleted down by centrifugation. Supernatants were collected for concentration analysis. R848 concentrations were quantified by UV-Vis spectrometry at 320 nm using a NanoDrop 2000 spectrophotometer. IVM concentrations were quantified by high-performance liquid chromatography (HPLC) using an isocratic mobile phase composed of water/methanol/acetonitrile (8:36:56, v/v/v), an C18 column (Kromasil 150-C-18, 4.6×150 mm), and PDA detection at 230 nm.

MC38 cells = experiment: Cell viability assay (MTS); assay type: cell-based, murine; details: (SEM)
Description: Cell Viability Assay. MC38 cells were seeded at 3000 cells/well in 96-well plates 24 hours before treatments. […] After 72 hour-treatment, cell viability was examined by CellTiter 96R AQueous One Solution (Promega, Madison, WI) per manufacturer protocol. The IC50 for R848 or IVM was determined by R programming.

[2] = test system: Calreticulin, Hmgb1, Lc3b mRNA in MC38 cells; experiment: In vitro gene regulation by RT-qPCR; assay type: cell-based, murine; details: 8 μM, 24 hours
Description: MC38 cells were seeded at 3×10^5 cells/well in 6-well plates 24 hours before treatments. […] R848 and IVM were both treated at 8 μM, either as free drug solution or in squalene NE. Total RNA was extracted using TRI reagent (Zymo Research) per manufacturer protocol. cDNA was prepared by high-capacity cDNA reverse transcription kit (Invitrogen, Waltham, MA, USA), and real-time qPCR (RT-qPCR) was done using SsoAdvanced™ Universal SYBRR Green Supermix (Bio-Rad Laboratories, Hercules, CA) on a QuantStudio 7 Flex Real-time PCR System. RT-qPCR primers for murine Calreticulin, Hmgb1, Lc3b, and Actb were purchased from Sigma-Aldrich. Actb was selected as the housekeeping gene control. The relative amount of RNA level was calculated and compared according to the 2-ΔΔCt method.

Compound | Increase of solubility in squalene-based NE compared with PBS [1] | IC50 (MC38 cells; 72 hours) | Calreticulin mRNA level [2] | IC50 (MC38 cells; Mus musculus, MC-38, 72 hours)
CC[C@H](C)[C@H]1O[C@]2(CC[C@@H]1C)C[C@@H]1C[C@@H](C/C=C(\C)[C@@H](O[C@H]3C[C@H](OC)[C@@H](O[C@H]4C[C@H](OC)[C@@H](O)[C@H](C)O4)[C@H](C)O3)[C@@H](C)/C=C/C=C3\CO[C@@H]4[C@H](O)C(C)=C[C@@H](C(=O)O1)[C@]34O)O2 [IVM] | 100 fold | 10.9 ± 4.15 µM | did not show significant Calreticulin regulation | 
CCOCc1nc2c(N)nc3ccccc3c2n1CC(C)(C)O [R848, 4-amino-2-ethoxymethyl-α, α-dimethyl-1H-imidazol[4,5-c]quinoli-ne-1-ethanol] | 2 fold |  |  | > 100 µM
